Columns and labels:
[1] = target: Glucagon receptor (Rattus norvegicus, UniProt P30082); assay: Tested against glucagon receptor for its ability to displace radiolabeled ([125I]-glucagon) in […] liver
[2] = species on record: Rattus norvegicus; assay: Tested for its ability to increase cAMP production (in the absence of glucagon) in rat liver homogenates; no measurable agonist activity; assay type: functional
[3] = species on record: Rattus norvegicus; assay: Inhibitory concentration against glucagon receptor -stimulated cAMP production in rat liver homogenates; assay type: functional

Glucagon receptor, sequence (P30082 whole entry): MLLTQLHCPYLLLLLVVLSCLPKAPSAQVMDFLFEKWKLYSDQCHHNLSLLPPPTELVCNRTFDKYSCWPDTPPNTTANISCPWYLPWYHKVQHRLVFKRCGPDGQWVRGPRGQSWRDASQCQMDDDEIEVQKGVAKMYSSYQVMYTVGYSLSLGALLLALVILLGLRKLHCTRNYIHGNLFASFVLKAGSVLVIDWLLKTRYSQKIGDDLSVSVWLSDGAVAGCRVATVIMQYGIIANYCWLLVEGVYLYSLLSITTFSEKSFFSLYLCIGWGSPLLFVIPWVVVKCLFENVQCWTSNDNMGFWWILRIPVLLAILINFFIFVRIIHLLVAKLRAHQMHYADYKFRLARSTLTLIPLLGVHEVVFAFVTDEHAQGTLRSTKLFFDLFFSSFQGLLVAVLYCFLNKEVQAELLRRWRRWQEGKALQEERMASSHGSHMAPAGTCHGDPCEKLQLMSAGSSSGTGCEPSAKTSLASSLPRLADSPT

CN(C)CCCN(C)c1nc2cc(Cl)c(Cl)cc2nc1/C=C/c1ccccc1
IC50 [1]: 4 µM
IC50 [2]: > 32 µM
IC50 [3]: 7 µM

From ChEMBL document CHEMBL1126462, “CP-99,711: a non-peptide glucagon receptor antagonist” (Bioorg Med Chem Lett, 1992)
